Laboratory results as given in US20120020915A1, “Compounds and Methods for Treating Cancer and Diseases of the Central Nervous System” (QUEENS UNIVERSITY AT KINGSTON, priority 2007, published 2012).
“Also recorded” adds a separate entry of the source.

Assays:
[1] = target: T1, heme oxygenase activity in hHO-1-transfected astrocytes (Homo sapiens, UniProt P09601); test: In vitro HO enzyme activity (bilirubin formation) in hHO-1 transfected cells; format: cell-based; details: 6.5 μM, 18 h; hydrochloride
T1 construct: containing the entire protein-coding region (866 bp) of the human HO-1 gene; expressed in transfected cells; host or cells: primary rat astrocytes (also rat C6 glioma and human pancreatic tumor cells), transient transfection with Lipofectamine 2000
T1 sequence (P09601 1-288): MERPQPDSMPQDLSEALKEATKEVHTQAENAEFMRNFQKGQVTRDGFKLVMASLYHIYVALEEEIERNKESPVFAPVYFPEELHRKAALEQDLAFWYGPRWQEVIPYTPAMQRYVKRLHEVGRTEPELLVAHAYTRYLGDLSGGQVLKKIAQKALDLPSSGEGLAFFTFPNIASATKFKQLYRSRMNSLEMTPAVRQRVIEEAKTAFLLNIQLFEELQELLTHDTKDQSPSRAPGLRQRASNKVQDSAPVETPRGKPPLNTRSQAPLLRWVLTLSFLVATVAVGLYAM
Procedure: (§1) Upon reaching >90% confluence, 1×10^6 cells were transiently transfected with 4.0 μg of plasmid DNA-Lipofectamine 2000 complex using Lipofectamine 2000 method according to manufacturer instructions (Invitrogen). […] 12 μg of plasmid DNA and 16 μl of Lipofectamine 2000 reagent were diluted in 1.5 mL opti-MEM I reduced serum medium and incubated for 5 minutes at room temperature with gentle mixing. The two solutions were combined, incubated at room temperature for 20 minutes to promote formation of DNA-lipid complexes and administered to the cells. 2 mL opti-MEM I reduced serum medium was added to the flasks to ensure coverage of the monolayer by the transfection mixture. Following incubation for 6 hours at 37° C., the transfection mixture was replaced with 10 mL of complete media without antibiotics.
Cytosol extracts were prepared for HO activity measurement by the method of Ryter (Ryter, Kvam, Tyrrell 2000). […] Protein concentration of supernatant was measured with Bradford method. […] HO activity was calculated as nanomoles bilirubin per miligram protein per min, assuming an extinction coefficient of 40/mM/cm in chloroform (see FIG. 8).

[2] = tested on: hHO-1 transfected primary rat astroglial cultures; test: Protein carbonyl assay (ELISA) in hHO-1 transfected rat astroglia, whole-cell and mitochondrial fractions; format: cell-based; details: whole cell and mitochondrial compartments; for oxidative protein damage (protein carbonyls) accruing from hHO-1 transfection: 6.5 μM; for dose dependence of attenuation of oxidative protein damage: transiently transfected rat astroglia, hydrochloride
Procedure: Cells were grown in Ham's F12 and high glucose DMEM (50:50 v/v) supplemented with 10 mM HEPES, 5% heat-inactivated horse serum, 5% heat-inactivated fetal bovine serum, and penicillin-streptomycin (50 U/mL and 50 μg/mL, respectively).
as §1
The cells were sonicated (Sonics & Materials, Danbury, Conn.) at a power level of 50 for 3×20 s in a cooled water bath. […] Whole-cell and mitochondrial preparations were assayed for protein carbonyls as described below.
Protein carbonyls were reacted with 2,4-dinitrophenylhydrazine (DNP) and the hydrazone adducts were detected with anti-DNP antisera. Quantification was achieved by comparison with oxidized BSA standards. Oxidized (carbonylated) BSA was prepared by reacting natural BSA (at 50 mg/mL in PBS) with hypochlorous acid (5 mM) for 1 h at 37° C., followed by overnight dialysis against PBS at 4° C. […] The pellet was resuspended in 2 mL of same buffer, sonicated on ice 2×15 s at 20 W and centrifuged for 20 min at 4° C. at 1,303×g. Protein concentration of supernatant was measured with the RC DC protein assay based on the Lowry protocol (Bio-Rad Laboratories, Hercules, Calif.). All samples were adjusted to 4.0 mg protein/mL. […] Five microliters aliquots of each reaction mixture were mixed with 1 mL PBS and 200 μL replicates were added per well to 96-well immunoplates and incubated overnight at 4° C. After washing with PBS, nonspecific binding sites were blocked with 0.1% Tween 20 in PBS. […] A 6-point standard curve of reduced and oxidized BSA was generated for each plate analyzed. Specific absorbance for each sample was calculated by subtracting basal absorbance of the DNP reagent from the total absorbance.

flag-tagged HO-1 protein = test: Western blot of flag-tagged HO-1 protein in transfected cells; format: cell-based, human; details: 6.5 μM, transiently transfected cells
Procedure: Cells were rinsed twice with cold PBS (pH 7.4) and scraped in iced lysis buffer consisting of 1% Nonidet P-40, 50 mM Tris.HCl (pH 7.4), 30 mM NaCl, 25 mM β-glycerophosphate, 10 mM EDTA, 10 mM EGTA, 1 mM MgCl2, and protease inhibitors (10 mM sodium fluoride, 50 μg/mL AEBBSF, 5 μg/mL leupeptin, 5 μg/mL pepstatin, 5 μg/mL aprotinin). Supernatants were obtained by centrifugation at 15,000 rpm for 15 min at 4° C. Protein contents were determined using the Bradford method. Twenty μg aliquots plus 6×SDS-PAGE loading buffer (300 mM Tris.HCl pH 6.8, 600 mM DTT, 12% SDS, 0.6% bromophenol blue, 60% glycerol) were subjected to 10% sodium dodecyl sulfate-polyacrylamide gel electrophoresis and transferred to the polyvinylidene fluoride membranes. Nonspecific binding was blocked by incubation in Tris buffer saline (pH 7.4) containing 3% nonfat milk and 0.1% Tween 20 for 1 h at room temperature. Blots were probed with mouse anti-FLAG monoclonal antibody (1:200 diluted) and anti-β-actin monoclonal antibody (1:500 diluted). The secondary antibody consisted of horseradish peroxidase-conjugated goat anti-mouse antibody (1:4000 dilution). Protein bands were visualized by enhanced chemiluminescence using ECL western blotting reagents.

[3] = Toxicity / tolerability of QC-56 in SCID mice (pilot study); format: in vivo
From the text: IV.I (iii) Bioassay Species and strain: Mouse (Mus musculus); SCID, male Age at dosing initiation: 8 weeks old.
Once tumors became palpable, mice were randomized into experimental groups and the treatment was initiated.

[4] = tested on: B16-BL6 cells (mouse melanoma); test: Metastatic B16-BL6 melanoma model, lung surface metastases; format: in vivo; details: vehicle control: 101
Procedure: B16-BL6 cells (mouse melanoma). B16-BL6 metastatic variant was derived from B16-F10. This cell variant was obtained from Dr. Linda D. Williams, Dept. of Cancer Biology, MD Anderson Cancer Center, Texas, USA. […] Cells were maintained at 37° C. in a humidified atmosphere (5% CO2, 95% air).
Control groups received the vehicle alone.

| SMILES | heme oxygenase activity in hHO-1 transfected cells [1] | oxidative protein damage (protein carbonyls) accruing from hHO-1 transfection [2] | dose dependence of attenuation of oxidative protein damage [2] | expression level of flag-tagged HO-1 protein (flag-tagged HO-1 protein) | tolerability after multiple administrations ([3]; 50 mg/kg) | tolerability at repeated doses ([3]; 30 and 60 mg/kg, intraperitoneal, hydrochloride) | toxic single dose ([3]; intraperitoneally, single dose) | macroscopic nodules in the lungs (average) [4] |
| --- | --- | --- | --- | --- | --- | --- | --- | --- |
| Cl.FC[C@@H]1CO[C@@](CCc2ccc(Cl)cc2)(Cn2ccnc2)O1 [QC-47, (2R,4S)-1-{2-[2-(4-Chlorophenyl)ethyl]-4-fluoromethyl-[1,3]dioxolan-2-ylmethyl}-1H-imidazole hydrochloride] | suppressed to levels akin to those of non-transfected and sham-transfected controls; also recorded: significantly attenuated heme oxygenase activity; also recorded: significantly decreased the activity of heme oxygenase-1 | significantly attenuated oxidative protein damage | significant dose dependant attenuations of oxidative protein damage; also recorded: in a dose dependent manner significantly decreased the amount of oxidative damage | without affecting the expression level | – | – | – | – |
| Brc1ccc(CCC2(Cn3ccnc3)OCCO2)cc1.Cl [QC-56, 1-((2-(2-(4-Bromophenyl)ethyl)-1,3-dioxolan-2-yl)methyl)-1H-imidazole hydrochloride] | suppressed to levels akin to those of non-transfected and sham-transfected controls; also recorded: significantly attenuated heme oxygenase activity; also recorded: significantly decreased the activity of heme oxygenase-1 | significantly attenuated oxidative protein damage | significant dose dependant attenuations of oxidative protein damage; also recorded: in a dose dependent manner significantly decreased the amount of oxidative damage; also recorded: significant dose-dependant attenuations of oxidative protein damage | without affecting the expression level | well tolerated | well tolerated at repeated doses of 30 and 60 mg/kg with minor changes in body weights with no apparent toxicity; also recorded: well tolerated | ≥ 100 mg/kg | 51 nodules |
